Tests used:
Assay type in all cases: cell-based
EGFR = assay: Microsphere (Luminex) detection of tyrosine-phosphorylated EGFR in lysates of activated A431 cells; settings: for detection of tyrosine phosphorylated EGFR in lysates of activated cells: anti-EGFR coated microspheres, 4G10-biotin, streptavidin-R-phycoerythrin
Experimental: A431 cells were grown to 80-90% confluency in T75 flasks. Cells were washed once with fresh media (37° C.). For treatment, sodium pervanadate was prepared as described above and diluted into DMEM to 1 mM final concentration. Two ml of 1 mM sodium pervanadate containing media, prewarmed to 37° C., was added per T75 flask and the cell monolayer was covered with it. Cells were incubated at 37° C. for 5 min. Activated cells were lysed and processed as described below.
For pathway specific activation of A431 cells, which overexpress the epidermal growth factor receptor (EGFR), the cells were treated with epidermal growth factor (EGF). Cells were grown to about 80-90% confluency in a T75 flask. The optimal concentration of EGF for activation of the EGFR pathway in A431 cells was determined to be 100 μM. EGF was diluted in DMEM containing 10% serum. Two ml of the diluted EGF (100 μM) was layered on top of the cell monolayer. Cells were incubated at 37° C. for 15 min for activation. Activated cells were lysed and processed as described below.
A431 cells were lysed by adding 1 ml of 1× lysis buffer (1% NP-40 and protease inhibitor cocktail in PBS), pre-chilled on ice, per T75 flask. Cells were removed by scraping with a cell scraper. Lysate was vortexed immediately after addition of lysis buffer and incubated on ice for 15 min. While incubating on ice, it was mixed by vortexing every 5 min. […]
(§1) After incubation with the lysate, liquid was drained from the bottom of plate, under vacuum, on a suction apparatus (Millipore Corporation) designed to fit these plates. […] Washed microspheres were resuspended in 100 μl of wash buffer per well and analyzed in the Luminex-100™ instrument, according to the manufacturer's instructions.
Later experiments focused on analyzing multiple proteins in another pathway simultaneously, as described below. (It will be evident that multiple proteins in the EGFR pathway or any other pathways or combinations thereof could similarly be analyzed simultaneously.)

Lck [1] = assay: Five-plex microsphere (Luminex) assay of tyrosine phosphorylation in activated Jurkat T-cells: Lck; settings: lysate from pervanadate treated Jurkat cells, 37° C., 5 min; FIG. 2
Experimental: (§2) Jurkat cells were resuspended to a density of 1×10^8 cells/ml in PBS. Cells were pre-warmed to 37° C. for 15 min. To each milliliter of cell suspension, 40 μl of sodium pervanadate was added. Cells were mixed and immediately incubated at 37° C. for 5 min. Activated cells were lysed, and cell lysates were processed as described below.
(§3) For pathway specific activation, Jurkat cells were treated with anti-CD3-receptor monoclonal antibody (UCHT1) (Becton Dickenson, San Diego, Calif.). Cells were resuspended in PBS at a density of 1×10^8/ml and prewarmed to 37° C. Anti-CD3 antibody was added to a final concentration of 5 μg/ml. Cells were mixed and incubated at 37° C. for various times ranging from 5 sec to 10 min. Optimal phosphorylation of most tyrosine kinases and their substrates in the T-cell receptor pathway occurred in 5 min.
(§4) Jurkat cells were lysed by adding a volume of 2× lysis buffer (2% NP-40 and protease inhibitor cocktail (both from Roche Diagnostics, Mannheim, Germany) in PBS), pre-chilled on ice, equal to the volume of the resuspended cells. […]
as §1, with “instructions. […]” for “instructions.”

Zap70 [2] = assay: Five-plex microsphere (Luminex) assay of tyrosine phosphorylation in activated Jurkat T-cells: Zap70; settings: lysate from pervanadate treated Jurkat cells, 37° C., 5 min; FIG. 2
Experimental: as §2, §3, §4
as §1, with “instructions. […]” for “instructions.”

LAT [3] = assay: Five-plex microsphere (Luminex) assay of tyrosine phosphorylation in activated Jurkat T-cells: LAT; settings: lysate from pervanadate treated Jurkat cells, 37° C., 5 min; FIG. 2
Experimental: as §2, §3, §4
as §1, with “instructions. […]” for “instructions.”

Lck [4] = assay: Immunoprecipitation and Western analysis with biotinylated 4G10, Jurkat lysates: Lck; settings: Jurkat cell lysates, treated vs untreated; FIG. 3
Experimental: (§5) To confirm that microspheres coated with antibodies to Lck, Zap70 and LAT captured predominantly specific proteins in cell lysates, immunoprecipitation was performed with these antibodies. Cell lysates (1×10^8 cells in 1 ml) were incubated with 2.5 μg of each antibody for 1 hr. The immune complexes were captured with Protein G conjugated sepharose (Sigma Chemicals, St. Louis, Mo.) and resolved by standard polyacrylamide gel electrophoresis (PAGE). Resolved proteins were transferred to PVDF membrane (BiORad, Hercules, Calif.) and probed with biotinylated 4G10 (1:2000 dilution in 5% non-fat powdered milk in PBS). Phosphorylated bands were finally detected by ABC Detection Reagent (Vector Laboratories, Burlingame, Calif.) and Chemiluminescent Substrate (Pierce). […] These phosphorylated proteins predominated in their respective immunoprecipitates.

Zap70 [5] = assay: Immunoprecipitation and Western analysis with biotinylated 4G10, Jurkat lysates: Zap70; settings: Jurkat cell lysates, treated vs untreated; FIG. 3
Experimental: as §5

LAT [6] = assay: Immunoprecipitation and Western analysis with biotinylated 4G10, Jurkat lysates: LAT; settings: Jurkat cell lysates, treated vs untreated; FIG. 3
Experimental: as §5

| Substance | optimal concentration of EGF for activation of the EGFR pathway (EGFR; 37° C., 15 min) [µM] | detection of tyrosine phosphorylated EGFR in lysates of activated cells (EGFR) | fluorescent signal from streptavidin-phycoerythrin, anti-Lck coated microspheres (Lck [1]) | fluorescent signal from streptavidin-phycoerythrin, anti-Zap70 coated microspheres (Zap70 [2]) | fluorescent signal from streptavidin-phycoerythrin, anti-LAT coated microspheres (LAT [3]) | phosphorylated band of Lck in immunoprecipitate (Lck [4]) | phosphorylated band of Zap70 in immunoprecipitate (Zap70 [5]) | phosphorylated band of LAT in immunoprecipitate (LAT [6]) |
| --- | --- | --- | --- | --- | --- | --- | --- | --- |
| epidermal growth factor [EGF] | 100 | could be detected |  |  |  |  |  |  |
| sodium pervanadate |  | could be detected | strong fluorescent signal | strong fluorescent signal | strong fluorescent signal | detected only in lysates from cells treated with sodium pervanadate | detected only in lysates from cells treated with sodium pervanadate | detected only in lysates from cells treated with sodium pervanadate |

Reference: patent US20040229284A1, “Multiplex analysis of proteins” (The Regents of the University of California, priority 2003, published 2004)
